Tests used:
Danio rerio embryo [1] = assay: EC10 Bladder size_Decrease; higher = less potent; details: exposure time: 4 dpf
Method: (§1)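 Zebrafish embryos (UFZ-OBI strain) were exposed from 2 hpf for 48 h (2 dpf) or 96 h (4 dpf) at 28 °C; spontaneous tail coiling was scored at 25 hpf. Morphological features from automated image analysis (FishInspector), heart rate and locomotor response were fitted with drc models. Quantal endpoints were dichotomised at 2.5 SD from controls and fitted with a log-logistic model; heart rate, pigmentation and STC were normalised to the replicate control mean. Betamethasone was tested as betamethasone dipropionate, diflorasone as diflorasone diacetate.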

Danio rerio embryo [2] = assay: EC50 Bladder size_Decrease; details: exposure time: 4 dpf
Method: as §1

Danio rerio embryo [3] = assay: EC20 Lack of SB; higher = less potent; details: exposure time: 4 dpf
Method: as §1

Danio rerio embryo [4] = assay: EC10 Eye-jaw distance_Decrease; higher = less potent; details: exposure time: 4 dpf
Method: as §1

Danio rerio embryo [5] = assay: EC50 Eye-jaw distance_Decrease; details: exposure time: 4 dpf
Method: as §1

Danio rerio embryo [6] = test system: Danio rerio embryo
Method: as §1

Danio rerio embryo [7] = assay: EC20 Body length_Decrease; higher = less potent
Method: as §1

Danio rerio embryo [8] = assay: EC20 LMR dark; higher = less potent; details: exposure time: 4 dpf
Method: as §1

Danio rerio embryo [9] = assay: EC20 Pericard size_Increase; higher = less potent
Method: as §1

Danio rerio embryo [10] = assay: EC20 Curvature_Increase; higher = less potent; details: exposure time: 2 dpf
Method: as §1

Danio rerio embryo [11] = assay: EC20 Bladder size_Decrease; higher = less potent; details: exposure time: 4 dpf
Method: as §1

Danio rerio embryo [12] = assay: EC50 Yolk sac size_Increase; details: exposure time: 4 dpf
Method: as §1

Danio rerio embryo [13] = assay: EC10 Any effect; higher = less potent
Method: as §1

Danio rerio embryo [14] = assay: EC20 Eye-jaw distance_Decrease; higher = less potent; details: exposure time: 4 dpf
Method: as §1

Danio rerio embryo [15] = assay: EC20 Otolith-eye distance_Decrease; higher = less potent; details: exposure time: 4 dpf
Method: as §1

Danio rerio embryo [16] = assay: EC10 Curvature_Increase; higher = less potent; details: exposure time: 2 dpf
Method: as §1

Danio rerio embryo [17] = assay: spontaneous tail coiling frequency (coils/min/embryo); higher = more spontaneous movement; details: 25 hpf
Method: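 Spontaneous tail coilings of zebrafish embryos exposed from 2 hpf were recorded at 24-25 hpf in 1-min videos and detected by a KNIME workflow from grey-value variance. Betamethasone was tested as the dipropionate, diflorasone as the diacetate.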

Danio rerio embryo [18] = assay: EC10 Body length_Decrease; higher = less potent
Method: as §1

Danio rerio embryo [19] = assay: EC50 Pericard size_Increase
Method: as §1

Danio rerio embryo [20] = assay: EC10 Otolith-eye distance_Decrease; higher = less potent; details: exposure time: 4 dpf
Method: as §1

Danio rerio embryo [21] = assay: EC20 Yolk sac size_Increase; higher = less potent; details: exposure time: 4 dpf
Method: as §1

Danio rerio embryo [22] = assay: EC50 Curvature_Increase; details: exposure time: 2 dpf
Method: as §1

Danio rerio embryo [23] = assay: EC10 LMR dark; higher = less potent; details: exposure time: 4 dpf
Method: as §1

Danio rerio embryo [24] = assay: EC20 Head trunk angle_Decrease; higher = less potent; details: exposure time: 2 dpf
Method: as §1

Danio rerio embryo [25] = assay: EC10 Pericard size_Increase; higher = less potent
Method: as §1

Danio rerio embryo [26] = assay: EC10 Yolk sac size_Increase; higher = less potent; details: exposure time: 4 dpf
Method: as §1

Danio rerio embryo [27] = details: exposure time: 4 dpf
Method: as §1

Danio rerio embryo [28] = assay: EC50 Body length_Decrease
Method: as §1

Danio rerio embryo [29] = assay: EC50 Otolith-eye distance_Decrease; details: exposure time: 4 dpf
Method: as §1

Danio rerio embryo [30] = assay: EC20 Any effect; higher = less potent
Method: as §1

CCCCOC(=O)[C@@H](C)Oc1ccc(Oc2ccc(C(F)(F)F)cn2)cc1 [fluazifop-p-butyl]
Details	EC10 Bladder size Decrease [nM]	EC10 Curvature Increase [nM]	EC10 Eye-jaw distance Decrease [nM]	EC10 LMR dark [nM]	EC10 Otolith-eye distance Decrease [nM]	EC10 Yolk sac size Increase [nM]	EC20 Bladder size Decrease [nM]	EC20 Curvature Increase [nM]	EC20 Eye-jaw distance Decrease [nM]	EC20 Head trunk angle Decrease [nM]	EC20 LMR dark [nM]	EC20 Lack of SB [nM]	EC20 Otolith-eye distance Decrease [nM]	EC20 Yolk sac size Increase [nM]	EC50 Bladder size Decrease [nM]	EC50 Curvature Increase [nM]	EC50 Eye-jaw distance Decrease [nM]	EC50 LMR dark [nM]	EC50 Otolith-eye distance Decrease [nM]	EC50 Yolk sac size Increase [nM]
Danio rerio embryo [1]	780	–	–	–	–	–	–	–	–	–	–	–	–	–	–	–	–	–	–	–
Danio rerio embryo [2]	–	–	–	–	–	–	–	–	–	–	–	–	–	–	1510	–	–	–	–	–
Danio rerio embryo [3]	–	–	–	–	–	–	–	–	–	–	–	991	–	–	–	–	–	–	–	–
Danio rerio embryo [4]	–	–	645	–	–	–	–	–	–	–	–	–	–	–	–	–	–	–	–	–
Danio rerio embryo [5]	–	–	–	–	–	–	–	–	–	–	–	–	–	–	–	–	2360	–	–	–
Danio rerio embryo [8]	–	–	–	–	–	–	–	–	–	–	767	–	–	–	–	–	–	–	–	–
Danio rerio embryo [10]	–	–	–	–	–	–	–	3340	–	–	–	–	–	–	–	–	–	–	–	–
Danio rerio embryo [11]	–	–	–	–	–	–	994	–	–	–	–	–	–	–	–	–	–	–	–	–
Danio rerio embryo [12]	–	–	–	–	–	–	–	–	–	–	–	–	–	–	–	–	–	–	–	3420
Danio rerio embryo [14]	–	–	–	–	–	–	–	–	1040	–	–	–	–	–	–	–	–	–	–	–
Danio rerio embryo [15]	–	–	–	–	–	–	–	–	–	–	–	–	964	–	–	–	–	–	–	–
Danio rerio embryo [16]	–	2280	–	–	–	–	–	–	–	–	–	–	–	–	–	–	–	–	–	–
Danio rerio embryo [20]	–	–	–	–	629	–	–	–	–	–	–	–	–	–	–	–	–	–	–	–
Danio rerio embryo [21]	–	–	–	–	–	–	–	–	–	–	–	–	–	2620	–	–	–	–	–	–
Danio rerio embryo [22]	–	–	–	–	–	–	–	–	–	–	–	–	–	–	–	6370	–	–	–	–
Danio rerio embryo [23]	–	–	–	362	–	–	–	–	–	–	–	–	–	–	–	–	–	–	–	–
Danio rerio embryo [24]	–	–	–	–	–	–	–	–	–	3890	–	–	–	–	–	–	–	–	–	–
Danio rerio embryo [26]	–	–	–	–	–	2240	–	–	–	–	–	–	–	–	–	–	–	–	–	–
Danio rerio embryo [27]	–	–	–	–	–	–	–	–	–	–	–	–	–	–	–	–	–	2380	–	–
Danio rerio embryo [29]	–	–	–	–	–	–	–	–	–	–	–	–	–	–	–	–	–	–	2000	–

Details	EC10 Any effect [nM]	EC10 Body length Decrease [nM]	EC10 Pericard size Increase [nM]	EC20 Any effect [nM]	EC20 Body length Decrease [nM]	EC20 Pericard size Increase [nM]	EC50 Any effect [nM]	EC50 Body length Decrease [nM]	EC50 Otolith [nM]	EC50 Pericard size Increase [nM]	spontaneous tail coiling frequency
Danio rerio embryo [6], exposure time: 2 dpf	–	–	–	–	–	–	3100	–	9450	–	–
Danio rerio embryo [6], exposure time: 4 dpf	–	–	–	–	–	–	1540	–	–	–	–
Danio rerio embryo [7], exposure time: 2 dpf	–	–	–	–	1710	–	–	–	–	–	–
Danio rerio embryo [7], exposure time: 4 dpf	–	–	–	–	1150	–	–	–	–	–	–
Danio rerio embryo [9], exposure time: 2 dpf	–	–	–	–	–	2940	–	–	–	–	–
Danio rerio embryo [9], exposure time: 4 dpf	–	–	–	–	–	834	–	–	–	–	–
Danio rerio embryo [13], exposure time: 2 dpf	469	–	–	–	–	–	–	–	–	–	–
Danio rerio embryo [13], exposure time: 4 dpf	368	–	–	–	–	–	–	–	–	–	–
Danio rerio embryo [17], 1.29 µM	–	–	–	–	–	–	–	–	–	–	1.94
Danio rerio embryo [17], 1.93 µM	–	–	–	–	–	–	–	–	–	–	1.98
Danio rerio embryo [17], 2.9 µM	–	–	–	–	–	–	–	–	–	–	2.62
Danio rerio embryo [17], 4.35 µM	–	–	–	–	–	–	–	–	–	–	1.95
Danio rerio embryo [17], 5.2 µM	–	–	–	–	–	–	–	–	–	–	0.71
Danio rerio embryo [17], 6.52 µM	–	–	–	–	–	–	–	–	–	–	1.41
Danio rerio embryo [17], 9.78 µM	–	–	–	–	–	–	–	–	–	–	1.62
Danio rerio embryo [18], exposure time: 2 dpf	–	1090	–	–	–	–	–	–	–	–	–
Danio rerio embryo [18], exposure time: 4 dpf	–	702	–	–	–	–	–	–	–	–	–
Danio rerio embryo [19], exposure time: 2 dpf	–	–	–	–	–	–	–	–	–	6560	–
Danio rerio embryo [19], exposure time: 4 dpf	–	–	–	–	–	–	–	–	–	2110	–
Danio rerio embryo [25], exposure time: 2 dpf	–	–	1840	–	–	–	–	–	–	–	–
Danio rerio embryo [25], exposure time: 4 dpf	–	–	485	–	–	–	–	–	–	–	–
Danio rerio embryo [28], exposure time: 2 dpf	–	–	–	–	–	–	–	3700	–	–	–
Danio rerio embryo [28], exposure time: 4 dpf	–	–	–	–	–	–	–	2670	–	–	–
Danio rerio embryo [30], exposure time: 2 dpf	–	–	–	942	–	–	–	–	–	–	–
Danio rerio embryo [30], exposure time: 4 dpf	–	–	–	624	–	–	–	–	–	–	–

CCOC(=O)N1CCC(=C2c3ccc(Cl)cc3CCc3cccnc32)CC1 [Loratadine]
Details	EC10 Bladder size Decrease [nM]	EC10 Curvature Increase [nM]	EC10 Eye-jaw distance Decrease [nM]	EC10 LMR dark [nM]	EC10 Otolith-eye distance Decrease [nM]	EC10 Yolk sac size Increase [nM]	EC20 Bladder size Decrease [nM]	EC20 Curvature Increase [nM]	EC20 Eye-jaw distance Decrease [nM]	EC20 Head trunk angle Decrease [nM]	EC20 LMR dark [nM]	EC20 Lack of SB [nM]	EC20 Otolith-eye distance Decrease [nM]	EC20 Yolk sac size Increase [nM]	EC50 Bladder size Decrease [nM]	EC50 Curvature Increase [nM]	EC50 Eye-jaw distance Decrease [nM]	EC50 LMR dark [nM]	EC50 Otolith-eye distance Decrease [nM]	EC50 Yolk sac size Increase [nM]
Danio rerio embryo [1]	165	–	–	–	–	–	–	–	–	–	–	–	–	–	–	–	–	–	–	–
Danio rerio embryo [2]	–	–	–	–	–	–	–	–	–	–	–	–	–	–	282	–	–	–	–	–
Danio rerio embryo [3]	–	–	–	–	–	–	–	–	–	–	–	202	–	–	–	–	–	–	–	–
Danio rerio embryo [4]	–	–	5070	–	–	–	–	–	–	–	–	–	–	–	–	–	–	–	–	–
Danio rerio embryo [5]	–	–	–	–	–	–	–	–	–	–	–	–	–	–	–	–	6860	–	–	–
Danio rerio embryo [8]	–	–	–	–	–	–	–	–	–	–	318	–	–	–	–	–	–	–	–	–
Danio rerio embryo [10]	–	–	–	–	–	–	–	4480	–	–	–	–	–	–	–	–	–	–	–	–
Danio rerio embryo [11]	–	–	–	–	–	–	201	–	–	–	–	–	–	–	–	–	–	–	–	–
Danio rerio embryo [12]	–	–	–	–	–	–	–	–	–	–	–	–	–	–	–	–	–	–	–	11600
Danio rerio embryo [14]	–	–	–	–	–	–	–	–	5670	–	–	–	–	–	–	–	–	–	–	–
Danio rerio embryo [15]	–	–	–	–	–	–	–	–	–	–	–	–	4620	–	–	–	–	–	–	–
Danio rerio embryo [16]	–	3560	–	–	–	–	–	–	–	–	–	–	–	–	–	–	–	–	–	–
Danio rerio embryo [20]	–	–	–	–	4170	–	–	–	–	–	–	–	–	–	–	–	–	–	–	–
Danio rerio embryo [21]	–	–	–	–	–	–	–	–	–	–	–	–	–	6740	–	–	–	–	–	–
Danio rerio embryo [22]	–	–	–	–	–	–	–	–	–	–	–	–	–	–	–	6620	–	–	–	–
Danio rerio embryo [23]	–	–	–	279	–	–	–	–	–	–	–	–	–	–	–	–	–	–	–	–
Danio rerio embryo [24]	–	–	–	–	–	–	–	–	–	5060	–	–	–	–	–	–	–	–	–	–
Danio rerio embryo [26]	–	–	–	–	–	4910	–	–	–	–	–	–	–	–	–	–	–	–	–	–
Danio rerio embryo [27]	–	–	–	–	–	–	–	–	–	–	–	–	–	–	–	–	–	399	–	–
Danio rerio embryo [29]	–	–	–	–	–	–	–	–	–	–	–	–	–	–	–	–	–	–	5490	–

Details	EC10 Any effect [nM]	EC10 Body length Decrease [nM]	EC10 Pericard size Increase [nM]	EC20 Any effect [nM]	EC20 Body length Decrease [nM]	EC20 Pericard size Increase [nM]	EC50 Any effect [nM]	EC50 Body length Decrease [nM]	EC50 Pericard size Increase [nM]	EC50 STC decrease [nM]	spontaneous tail coiling frequency
Danio rerio embryo [6], exposure time: 2 dpf	–	–	–	–	–	–	6400	–	–	–	–
Danio rerio embryo [6], exposure time: 4 dpf	–	–	–	–	–	–	438	–	–	–	–
Danio rerio embryo [6], exposure time: 25 h	–	–	–	–	–	–	–	–	–	6630	–
Danio rerio embryo [7], exposure time: 2 dpf	–	–	–	–	6000	–	–	–	–	–	–
Danio rerio embryo [7], exposure time: 4 dpf	–	–	–	–	404	–	–	–	–	–	–
Danio rerio embryo [9], exposure time: 4 dpf	–	–	–	–	–	4720	–	–	–	–	–
Danio rerio embryo [13], exposure time: 2 dpf	4340	–	–	–	–	–	–	–	–	–	–
Danio rerio embryo [13], exposure time: 4 dpf	376	–	–	–	–	–	–	–	–	–	–
Danio rerio embryo [17], 0.155 µM	–	–	–	–	–	–	–	–	–	–	2.97
Danio rerio embryo [17], 0.31 µM	–	–	–	–	–	–	–	–	–	–	1.28
Danio rerio embryo [17], 0.61 µM	–	–	–	–	–	–	–	–	–	–	1.66
Danio rerio embryo [17], 1.22 µM	–	–	–	–	–	–	–	–	–	–	1.82
Danio rerio embryo [17], 2.45 µM	–	–	–	–	–	–	–	–	–	–	2.58
Danio rerio embryo [17], 4.9 µM	–	–	–	–	–	–	–	–	–	–	1.79
Danio rerio embryo [17], 9.79 µM	–	–	–	–	–	–	–	–	–	–	0.505
Danio rerio embryo [18], exposure time: 2 dpf	–	5130	–	–	–	–	–	–	–	–	–
Danio rerio embryo [18], exposure time: 4 dpf	–	383	–	–	–	–	–	–	–	–	–
Danio rerio embryo [19], exposure time: 4 dpf	–	–	–	–	–	–	–	–	10200	–	–
Danio rerio embryo [25], exposure time: 4 dpf	–	–	3010	–	–	–	–	–	–	–	–
Danio rerio embryo [28], exposure time: 2 dpf	–	–	–	–	–	–	–	7830	–	–	–
Danio rerio embryo [28], exposure time: 4 dpf	–	–	–	–	–	–	–	442	–	–	–
Danio rerio embryo [30], exposure time: 2 dpf	–	–	–	5010	–	–	–	–	–	–	–
Danio rerio embryo [30], exposure time: 4 dpf	–	–	–	398	–	–	–	–	–	–	–

From the supplement of paper PMC9013687
